Measured values taken from PubChem BioAssay AID280 (DTP/NCI, 2004).
“And” between values parts separate entries of the source, which are not always exact repeats. Identical values can stand only once. Toxic doses and inconclusive results are not listed. The calls were made as follows: active = survival T/C of 150% or more; inactive = T/C below 125% in these data.

Tested on: nude mice, LOX melanoma ip, survival T/C
Assay: NCI In Vivo Anticancer Drug Screen. Data for tumor model Human Amelanotic Melanoma (LOX) (intraperitoneal) in NU/NU BALB/C (nude) mice
Settings: endpoint: median survival time, higher = longer survival
Method: The antitumor activity of compounds was measured in mice bearing transplantable tumors. Survival or tumor size were measured and the results are expressed as the measurement made in the treated group (T) divided by the measurement made in the vehicle treated control group (C). The tumor model used in this assay is Human Amelanotic Melanoma (LOX) (intraperitoneal) in NU/NU BALB/C (nude) mice

[1] = dose: 75.0 mg/kg/injection, schedule: Q04DX003 (ip), vehicle: saline with Tween-80
[2] = dose: 150.0 mg/kg/injection, schedule: Q04DX003 (ip), vehicle: saline with Tween-80
[3] = dose: 300.0 mg/kg/injection, schedule: Q04DX003 (ip), vehicle: saline with Tween-80
[4] = dose: 50.0 mg/kg/injection, schedule: Q04DX003 (ip), vehicle: saline with Tween-80
[5] = dose: 100.0 mg/kg/injection, schedule: Q04DX003 (ip), vehicle: saline with Tween-80

Measured: T/C

O=NNc1ccc(Cl)cn1
inactive: dose: 2.5 mg/kg/injection, schedule: Q04DX003 (ip), vehicle: water 105 % of control | dose: 3.13 mg/kg/injection, schedule: Q04DX003 (ip), vehicle: water 111 % of control | dose: 5.0 mg/kg/injection, schedule: Q04DX003 (ip), vehicle: water 101 % of control | dose: 6.25 mg/kg/injection, schedule: Q04DX003 (ip), vehicle: water 112 % of control | dose: 10.0 mg/kg/injection, schedule: Q04DX003 (ip), vehicle: water 118 % of control | dose: 20.0 mg/kg/injection, schedule: Q04DX003 (ip), vehicle: water 124 % of control

Nc1ccc(S(=O)(=O)Nc2cnc3c(Cl)cccc3n2)cc1
inactive: dose: 89.1 mg/kg/injection, schedule: Q06HX002 (ip), vehicle: other 103 % of control | dose: 133.5 mg/kg/injection, schedule: Q01DX001 (ip), vehicle: other 88 % of control | dose: 133.5 mg/kg/injection, schedule: Q01DX005 (ip), vehicle: other 109 % of control | dose: 133.5 mg/kg/injection, schedule: Q06HX002 (ip), vehicle: other 103 % of control | dose: 200.2 mg/kg/injection, schedule: Q01DX001 (ip), vehicle: other 98 % of control | dose: 200.2 mg/kg/injection, schedule: Q01DX005 (ip), vehicle: other 114 % of control | dose: 200.2 mg/kg/injection, schedule: Q06HX002 (ip), vehicle: other 114 % of control | dose: 300.2 mg/kg/injection, schedule: Q01DX001 (ip), vehicle: other 104 % of control | dose: 300.2 mg/kg/injection, schedule: Q01DX005 (ip), vehicle: other 116 % of control | dose: 300.2 mg/kg/injection, schedule: Q06HX002 (ip), vehicle: other 111 % of control | dose: 450.0 mg/kg/injection, schedule: Q01DX001 (ip), vehicle: other 110 % of control | dose: 674.7 mg/kg/injection, schedule: Q01DX001 (ip), vehicle: other 119 % of control

NC(=S=O)C(N)=S=O
inactive: dose: 62.5 mg/kg/injection, schedule: Q04DX003 (ip), vehicle: saline with Tween-80 109 % of control | dose: 125.0 mg/kg/injection, schedule: Q04DX003 (ip), vehicle: saline with Tween-80 105 % of control | dose: 250.0 mg/kg/injection, schedule: Q04DX003 (ip), vehicle: saline with Tween-80 105 % of control | dose: 500.0 mg/kg/injection, schedule: Q04DX003 (ip), vehicle: saline with Tween-80 105 % of control

CN=C(N)N/N=C(\C)c1ccc2oc3ccc(/C(C)=N/NC(N)=NC)cc3c2c1
inactive: dose: 18.0 mg/kg/injection, schedule: Q04DX003 (ip), vehicle: Klucel (hydroxypropylcellulose) (HPC) 102 % of control and 123 % of control | dose: 30.0 mg/kg/injection, schedule: Q04DX003 (ip), vehicle: Klucel (hydroxypropylcellulose) (HPC) 117 % of control and 99 % of control | dose: 83.0 mg/kg/injection, schedule: Q04DX003 (ip), vehicle: Klucel (hydroxypropylcellulose) (HPC) 116 % of control | dose: 83.33 mg/kg/injection, schedule: Q04DX003 (ip), vehicle: Klucel (hydroxypropylcellulose) (HPC) 88 % of control | dose: 100.0 mg/kg/injection, schedule: Q04DX003 (ip), vehicle: Klucel (hydroxypropylcellulose) (HPC) 108 % of control

O=c1cc(-c2ccccc2)[nH]c2c1CCCC2
inactive: [1] 115 % of control | [2] 115 % of control | dose: 259.0 mg/kg/injection, schedule: Q04DX003 (ip), vehicle: saline with Tween-80 106 % of control | [3] 114 % of control | dose: 432.0 mg/kg/injection, schedule: Q04DX003 (ip), vehicle: saline with Tween-80 100 % of control | dose: 600.0 mg/kg/injection, schedule: Q04DX003 (ip), vehicle: saline with Tween-80 124 % of control | dose: 720.0 mg/kg/injection, schedule: Q04DX003 (ip), vehicle: saline with Tween-80 114 % of control

COc1cc(C2=NCCc3cc4c(cc32)OCO4)cc(OC)c1OC
inactive: dose: 18.75 mg/kg/injection, schedule: Q04DX003 (ip), vehicle: saline + alcohol 114 % of control | dose: 37.5 mg/kg/injection, schedule: Q04DX003 (ip), vehicle: saline + alcohol 115 % of control | dose: 75.0 mg/kg/injection, schedule: Q04DX003 (ip), vehicle: saline + alcohol 110 % of control | dose: 150.0 mg/kg/injection, schedule: Q04DX003 (ip), vehicle: saline + alcohol 115 % of control

CC1(C)Nc2cc3c(cc2-n2cccc21)oc1ccccc13
inactive: dose: 37.5 mg/kg/injection, schedule: Q04DX003 (ip), vehicle: DMSO 100 % of control | dose: 75.0 mg/kg/injection, schedule: Q04DX003 (ip), vehicle: DMSO 100 % of control | dose: 150.0 mg/kg/injection, schedule: Q04DX003 (ip), vehicle: DMSO 117 % of control | dose: 300.0 mg/kg/injection, schedule: Q04DX003 (ip), vehicle: DMSO 91 % of control

CC(=O)NO
inactive: dose: 75.0 mg/kg/injection, schedule: Q04DX003 (ip), vehicle: water 101 % of control | dose: 150.0 mg/kg/injection, schedule: Q04DX003 (ip), vehicle: water 101 % of control | dose: 300.0 mg/kg/injection, schedule: Q04DX003 (ip), vehicle: water 103 % of control | dose: 600.0 mg/kg/injection, schedule: Q04DX003 (ip), vehicle: water 103 % of control | dose: 1200.0 mg/kg/injection, schedule: Q04DX003 (ip), vehicle: water 92 % of control

CCCCN1C(=O)N(c2ccc(OCC)cc2)C2N(CCCC)C1C(C)(C)C2(C)C (stereo not given)
inactive: dose: 15.0 mg/kg/injection, schedule: Q04DX003 (ip), vehicle: saline with Tween-80 101 % of control | dose: 30.0 mg/kg/injection, schedule: Q04DX003 (ip), vehicle: saline with Tween-80 107 % of control | dose: 60.0 mg/kg/injection, schedule: Q04DX003 (ip), vehicle: saline with Tween-80 101 % of control and 102 % of control | dose: 120.0 mg/kg/injection, schedule: Q04DX003 (ip), vehicle: saline with Tween-80 101 % of control | dose: 240.0 mg/kg/injection, schedule: Q04DX003 (ip), vehicle: saline with Tween-80 98 % of control

O=C1C=CC2OC(c3ccccc3)C(O)C2O1 (stereo not given)
inactive: dose: 12.5 mg/kg/injection, schedule: Q04DX003 (ip), vehicle: DMSO 105 % of control | dose: 25.0 mg/kg/injection, schedule: Q04DX003 (ip), vehicle: DMSO 103 % of control | dose: 50.0 mg/kg/injection, schedule: Q04DX003 (ip), vehicle: DMSO 103 % of control

O=CC(CO)CC(C=O)n1cnc2c(=O)[nH]cnc21 (stereo not given)
inactive: dose: 50.0 mg/kg/injection, schedule: Q04DX003 (ip), vehicle: saline 109 % of control | dose: 100.0 mg/kg/injection, schedule: Q04DX003 (ip), vehicle: saline 102 % of control | dose: 200.0 mg/kg/injection, schedule: Q04DX003 (ip), vehicle: saline 103 % of control | dose: 400.0 mg/kg/injection, schedule: Q04DX003 (ip), vehicle: saline 113 % of control | dose: 800.0 mg/kg/injection, schedule: Q04DX003 (ip), vehicle: saline 100 % of control

C/C(=N\NC(=S)N1CC2CCC(CC2)C1)c1nccs1
inactive: dose: 12.5 mg/kg/injection, schedule: Q04DX003 (ip), vehicle: saline with Tween-80 101 % of control | dose: 25.0 mg/kg/injection, schedule: Q04DX003 (ip), vehicle: saline with Tween-80 107 % of control | [4] 118 % of control | [5] 118 % of control

COc1ccc(C[C@@H]2NC[C@@H](O)[C@@H]2OC(C)=O)cc1
inactive: dose: 37.5 mg/kg/injection, schedule: Q04DX003 (ip), vehicle: saline with Tween-80 101 % of control | [1] 101 % of control | [2] 103 % of control | [3] 101 % of control

O=P1(N(CCCl)CCCl)NCCCO1 (stereo not given)
inactive: dose: 40.0 mg/kg/injection, schedule: Q04DX003 (ip), vehicle: saline 111 % of control | dose: 60.0 mg/kg/injection, schedule: Q04DX003 (ip), vehicle: saline 115 % of control | dose: 90.0 mg/kg/injection, schedule: Q04DX003 (ip), vehicle: saline 101 % of control

COc1ccc2oc3c(ccc[n+]3C)c(=O)c2c1
inactive: [4] 108 % of control | [5] 107 % of control | dose: 200.0 mg/kg/injection, schedule: Q04DX003 (ip), vehicle: saline with Tween-80 102 % of control | dose: 400.0 mg/kg/injection, schedule: Q04DX003 (ip), vehicle: saline with Tween-80 101 % of control
